{"source": "PubChem BioAssay (NCI)", "assay_in_all_cases": "NCI tumour cell line growth inhibition, 384-well format", "key": {"786-0 renal": {"test_system": "786-0 renal"}, "HS 578T breast": {"test_system": "HS 578T breast"}, "MDA-MB-435 melanoma": {"test_system": "MDA-MB-435 melanoma"}, "HCT-116 colon": {"test_system": "HCT-116 colon"}, "MOLT-4 leukemia": {"test_system": "MOLT-4 leukemia"}, "SNB-75 CNS": {"test_system": "SNB-75 CNS"}, "KM12 colon": {"test_system": "KM12 colon"}, "SNB-19 CNS": {"test_system": "SNB-19 CNS"}, "SF-268 CNS": {"test_system": "SF-268 CNS"}, "SR leukemia": {"test_system": "SR leukemia"}, "A498 renal": {"test_system": "A498 renal"}, "HT29 colon": {"test_system": "HT29 colon"}, "K-562 leukemia": {"test_system": "K-562 leukemia"}, "SK-MEL-2 melanoma": {"test_system": "SK-MEL-2 melanoma"}, "TK-10 renal": {"test_system": "TK-10 renal"}, "SK-MEL-28 melanoma": {"test_system": "SK-MEL-28 melanoma"}, "OVCAR-5 ovarian": {"test_system": "OVCAR-5 ovarian"}, "SN12C renal": {"test_system": "SN12C renal"}, "M14 melanoma": {"test_system": "M14 melanoma"}, "NCI-H460 NSCLC": {"test_system": "NCI-H460 NSCLC"}, "ACHN renal": {"test_system": "ACHN renal"}, "MDA-MB-231 breast": {"test_system": "MDA-MB-231 breast"}, "BT-549 breast": {"test_system": "BT-549 breast"}, "CAKI-1 renal": {"test_system": "CAKI-1 renal"}, "HOP-92 NSCLC": {"test_system": "HOP-92 NSCLC"}, "NCI-H522 lung": {"test_system": "NCI-H522 lung"}, "HL-60(TB) leukemia": {"test_system": "HL-60(TB) leukemia"}, "DU-145 prostate": {"test_system": "DU-145 prostate"}, "SW-620 colon": {"test_system": "SW-620 colon"}, "UACC-62 melanoma": {"test_system": "UACC-62 melanoma"}, "PC-3 prostate": {"test_system": "PC-3 prostate"}, "OVCAR-4 ovarian": {"test_system": "OVCAR-4 ovarian"}, "A549 NSCLC": {"test_system": "A549 NSCLC"}, "OVCAR-3 ovarian": {"test_system": "OVCAR-3 ovarian"}, "MCF7 breast": {"test_system": "MCF7 breast"}}, "note": "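GI50 = concentration required for 50% inhibition of growth. At the TGI there is no net growth.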"}
{"smiles": "O=C(O)c1ccc2c(c1)CCCC(c1ccc(Cl)cc1Cl)=C2c1ccc(O[C@H]2CCN(CCCF)C2)cc1", "values": [{"measurement": "GI50", "setting": "786-0 renal", "result": 12.7, "unit": "µM"}, {"measurement": "TGI", "setting": "786-0 renal", "result": 25.3, "unit": "µM"}, {"measurement": "GI50", "setting": "HS 578T breast", "result": 3.36, "unit": "µM"}, {"measurement": "TGI", "setting": "HS 578T breast", "result": 18.1, "unit": "µM"}, {"measurement": "GI50", "setting": "MDA-MB-435 melanoma", "result": 12.2, "unit": "µM"}, {"measurement": "TGI", "setting": "MDA-MB-435 melanoma", "result": 24.6, "unit": "µM"}, {"measurement": "GI50", "setting": "HCT-116 colon", "result": 5.87, "unit": "µM"}, {"measurement": "TGI", "setting": "HCT-116 colon", "result": 18.8, "unit": "µM"}, {"measurement": "GI50", "setting": "MOLT-4 leukemia", "result": 3.61, "unit": "µM"}, {"measurement": "TGI", "setting": "MOLT-4 leukemia", "result": 14.2, "unit": "µM"}, {"measurement": "GI50", "setting": "SNB-75 CNS", "result": 12.9, "unit": "µM"}, {"measurement": "TGI", "setting": "SNB-75 CNS", "result": 25.6, "unit": "µM"}, {"measurement": "GI50", "setting": "KM12 colon", "result": 11.6, "unit": "µM"}, {"measurement": "TGI", "setting": "KM12 colon", "result": 24.2, "unit": "µM"}, {"measurement": "GI50", "setting": "SNB-19 CNS", "result": 13.1, "unit": "µM"}, {"measurement": "TGI", "setting": "SNB-19 CNS", "result": 26, "unit": "µM"}, {"measurement": "GI50", "setting": "SF-268 CNS", "result": 14.8, "unit": "µM"}, {"measurement": "TGI", "setting": "SF-268 CNS", "result": 28.2, "unit": "µM"}, {"measurement": "GI50", "setting": "SR leukemia", "result": 2920, "unit": "nM"}, {"measurement": "TGI", "setting": "SR leukemia", "result": 10.8, "unit": "µM"}, {"measurement": "GI50", "setting": "A498 renal", "result": 6.94, "unit": "µM"}, {"measurement": "TGI", "setting": "A498 renal", "result": 19.6, "unit": "µM"}, {"measurement": "GI50", "setting": "HT29 colon", "result": 12.2, "unit": "µM"}, {"measurement": "TGI", "setting": "HT29 colon", "result": 24.7, "unit": "µM"}, {"measurement": "GI50", "setting": "K-562 leukemia", "result": 7.96, "unit": "µM"}, {"measurement": "TGI", "setting": "K-562 leukemia", "result": 20.7, "unit": "µM"}, {"measurement": "GI50", "setting": "SK-MEL-2 melanoma", "result": 17.4, "unit": "µM"}, {"measurement": "TGI", "setting": "SK-MEL-2 melanoma", "result": 31.2, "unit": "µM"}, {"measurement": "GI50", "setting": "TK-10 renal", "result": 12.5, "unit": "µM"}, {"measurement": "TGI", "setting": "TK-10 renal", "result": 25.2, "unit": "µM"}, {"measurement": "GI50", "setting": "SK-MEL-28 melanoma", "result": 11.7, "unit": "µM"}, {"measurement": "TGI", "setting": "SK-MEL-28 melanoma", "result": 24, "unit": "µM"}, {"measurement": "GI50", "setting": "OVCAR-5 ovarian", "result": 15.2, "unit": "µM"}, {"measurement": "TGI", "setting": "OVCAR-5 ovarian", "result": 28.6, "unit": "µM"}, {"measurement": "GI50", "setting": "SN12C renal", "result": 14.4, "unit": "µM"}, {"measurement": "TGI", "setting": "SN12C renal", "result": 27.5, "unit": "µM"}, {"measurement": "GI50", "setting": "M14 melanoma", "result": 11.1, "unit": "µM"}, {"measurement": "TGI", "setting": "M14 melanoma", "result": 23.1, "unit": "µM"}, {"measurement": "GI50", "setting": "NCI-H460 NSCLC", "result": 10.3, "unit": "µM"}, {"measurement": "TGI", "setting": "NCI-H460 NSCLC", "result": 22.2, "unit": "µM"}, {"measurement": "GI50", "setting": "ACHN renal", "result": 11.9, "unit": "µM"}, {"measurement": "TGI", "setting": "ACHN renal", "result": 24.3, "unit": "µM"}, {"measurement": "GI50", "setting": "MDA-MB-231 breast", "result": 14.8, "unit": "µM"}, {"measurement": "TGI", "setting": "MDA-MB-231 breast", "result": 28.1, "unit": "µM"}, {"measurement": "GI50", "setting": "BT-549 breast", "result": 12, "unit": "µM"}, {"measurement": "TGI", "setting": "BT-549 breast", "result": 24.3, "unit": "µM"}, {"measurement": "GI50", "setting": "CAKI-1 renal", "result": 13, "unit": "µM"}, {"measurement": "TGI", "setting": "CAKI-1 renal", "result": 25.7, "unit": "µM"}, {"measurement": "GI50", "setting": "HOP-92 NSCLC", "result": 12.3, "unit": "µM"}, {"measurement": "TGI", "setting": "HOP-92 NSCLC", "result": 24.8, "unit": "µM"}, {"measurement": "GI50", "setting": "NCI-H522 lung", "result": 10.3, "unit": "µM"}, {"measurement": "TGI", "setting": "NCI-H522 lung", "result": 21.9, "unit": "µM"}, {"measurement": "GI50", "setting": "HL-60(TB) leukemia", "result": 4.44, "unit": "µM"}, {"measurement": "TGI", "setting": "HL-60(TB) leukemia", "result": 16, "unit": "µM"}, {"measurement": "GI50", "setting": "DU-145 prostate", "result": 13.6, "unit": "µM"}, {"measurement": "TGI", "setting": "DU-145 prostate", "result": 26.6, "unit": "µM"}, {"measurement": "GI50", "setting": "SW-620 colon", "result": 15.7, "unit": "µM"}, {"measurement": "TGI", "setting": "SW-620 colon", "result": 29.4, "unit": "µM"}, {"measurement": "GI50", "setting": "UACC-62 melanoma", "result": 13.5, "unit": "µM"}, {"measurement": "TGI", "setting": "UACC-62 melanoma", "result": 26.3, "unit": "µM"}, {"measurement": "GI50", "setting": "PC-3 prostate", "result": 10.2, "unit": "µM"}, {"measurement": "TGI", "setting": "PC-3 prostate", "result": 21.9, "unit": "µM"}, {"measurement": "GI50", "setting": "OVCAR-4 ovarian", "result": 11.3, "unit": "µM"}, {"measurement": "TGI", "setting": "OVCAR-4 ovarian", "result": 23.5, "unit": "µM"}, {"measurement": "GI50", "setting": "A549 NSCLC", "result": 9.67, "unit": "µM"}, {"measurement": "GI50", "setting": "OVCAR-3 ovarian", "result": 10.1, "unit": "µM"}, {"measurement": "TGI", "setting": "OVCAR-3 ovarian", "result": 21.8, "unit": "µM"}, {"measurement": "GI50", "setting": "MCF7 breast", "result": "< 10", "unit": "nM"}]}
